Assay results: paper PMC4404333, “Identification of Selective Inhibitors of the Plasmodium falciparum Hexose Transporter PfHT by Screening Focused Libraries of Anti-Malarial Compounds” (PLoS ONE, 2015)
Converted amounts (≈) assume the structure as drawn. “And” between values parts separate entries of the source, which are not always exact repeats. Equal entries are not always repeated. Structures can show the parent of a compound that is named as a salt. Where two headings read alike, the source gives them in different places.

Key:
human GLUT1 = molecular target: T1, human GLUT1 (Homo sapiens, UniProt P11166); test: Uptake of [3H] D-glucose by L. mexicana Δlmxgt1-3 null mutants expressing GLUT1; assay type: cell-based; parameters: expressed in transfected cells; host or cells: Leishmania mexicana promastigotes, Δlmxgt1-3 hexose transporter null mutant; settings: inhibition of uptake of 100 μM [3H] D-glucose, 1 min uptake assay
T1 sequence (P11166 1-492): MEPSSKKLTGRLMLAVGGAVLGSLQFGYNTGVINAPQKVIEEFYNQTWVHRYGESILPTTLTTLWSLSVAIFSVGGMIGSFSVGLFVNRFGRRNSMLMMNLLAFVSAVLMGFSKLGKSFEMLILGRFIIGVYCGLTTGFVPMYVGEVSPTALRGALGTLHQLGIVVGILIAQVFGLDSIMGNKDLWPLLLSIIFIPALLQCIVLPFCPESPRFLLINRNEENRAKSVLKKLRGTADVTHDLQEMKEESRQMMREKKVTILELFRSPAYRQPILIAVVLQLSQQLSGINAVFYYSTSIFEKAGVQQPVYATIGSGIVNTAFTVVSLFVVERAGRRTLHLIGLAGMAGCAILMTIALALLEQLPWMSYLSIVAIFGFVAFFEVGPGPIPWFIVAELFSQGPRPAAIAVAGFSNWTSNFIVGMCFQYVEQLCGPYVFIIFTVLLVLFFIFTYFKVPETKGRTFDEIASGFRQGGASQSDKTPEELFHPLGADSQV
Procedure: (§1) Glucose uptake assays employed logarithmic phase L. mexicana promastigotes of the Δlmxgt1-3 hexose transporter null mutant strain expressing either PfHT or GLUT1 from an episomal expression vector [17]. Parasites (1x10^7) were resuspended in 100 μL phosphate buffered saline, pH 7.4. Prior to uptake, parasites were pre-incubated for 5 min with inhibitor, and uptake was initiated by adding 100 μL of 200 μM [^3H] D-glucose diluted to 4.0 μCi/mL. Uptake was terminated, typically after 1 min, by centrifuging the parasites through a layer of dibutyl phthalate, as described. Control uptake assays employing [^3H] hypoxanthine, [^3H] uridine, and [^3H] L-proline were performed similarly. Analysis of kinetic data was performed using Graph Pad Prism 4.0b software (Graph Pad).

PfHT = PfHT (Plasmodium falciparum, UniProt Q7KWJ5); test: Uptake of [3H] D-glucose by L. mexicana Δlmxgt1-3 null mutants expressing PfHT; assay type: cell-based; parameters: expressed in transfected cells; host or cells: Leishmania mexicana promastigotes, Δlmxgt1-3 hexose transporter null mutant; settings: for SIglucose GLUT1/PfHT (Specificity Index, IC50 for GLUT1/IC50 for PfHT): uptake of 100 μM [3H] D-glucose; for Ki: linear regression; for Vmax: glucose uptake by PfHT
PfHT, sequence (Q7KWJ5 whole entry): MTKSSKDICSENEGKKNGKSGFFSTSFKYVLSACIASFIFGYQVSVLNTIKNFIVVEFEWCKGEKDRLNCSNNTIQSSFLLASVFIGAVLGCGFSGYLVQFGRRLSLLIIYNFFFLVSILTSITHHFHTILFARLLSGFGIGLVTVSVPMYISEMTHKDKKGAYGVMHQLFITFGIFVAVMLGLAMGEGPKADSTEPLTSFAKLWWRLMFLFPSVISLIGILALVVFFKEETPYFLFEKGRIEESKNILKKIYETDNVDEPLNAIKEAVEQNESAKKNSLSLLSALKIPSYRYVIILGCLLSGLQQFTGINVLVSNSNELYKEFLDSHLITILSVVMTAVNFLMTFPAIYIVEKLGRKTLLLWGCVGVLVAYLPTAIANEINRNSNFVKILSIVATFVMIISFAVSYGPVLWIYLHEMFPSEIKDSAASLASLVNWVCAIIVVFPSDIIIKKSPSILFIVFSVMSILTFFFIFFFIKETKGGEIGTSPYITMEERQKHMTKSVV
Procedure: as §1

Solubility assay = assay type: physicochemical; settings: aqueous buffer, kinetic from dmso stock, PBS pH 7.4, room temperature
Procedure: Next, 5 μL of this reference stock plate was mixed with 70 μL of 1-propanol and 75 μL of PBS (pH 7.4) to make the reference plate, and the UV spectrum (250–500 nm) of the reference plate was read. Then, 6 μL of 10 mM test compound stock was added to 600 μL of PBS, pH 7.4, in a 96-well storage plate and mixed. The storage plate was sealed and incubated at room temperature for 18 h. The suspension was then filtered through a 96-well filter plate (pION Inc.). Next, 75 μL of filtrate was mixed with 75 μL of 1-propanol to make the sample plate, and the UV spectrum of the sample plate was read. Calculations were done using μSOL Evolution software based on the area under the curve (AUC) of the UV spectrum of the sample plate and the reference plate. All compounds were tested in triplicate.

[1] = Parallel artificial membrane permeability assay (PAMPA); settings: for Permeation: pH 7.4; for Retention: retention in artificial membrane
Procedure: A parallel artificial membrane permeability assay (PAMPA) was conducted on a Biomek FX lab automation workstation (Beckman Coulter, Inc.) with PAMPA evolution 96 command software (pION Inc.) as follows: 3 μL of 10 mM test compound stock was mixed with 600 μL of PBS (pH 7.4) to make diluted test compound. Then 150 μL of diluted test compound was transferred to a UV plate (pION Inc.), and the UV spectrum was read as the reference plate. The membrane on a preloaded PAMPA sandwich (pION Inc.) was painted with 4 μL of GIT lipid (pION Inc.). The acceptor chamber was then filled with 200 μL of acceptor solution buffer (pION Inc.), and the donor chamber was filled with 180 μL of diluted test compound. The PAMPA sandwich was assembled, placed on the Gut-Box controlled environment chamber and stirred for 30 min. The aqueous boundary layer was set to 40 μm for stirring. The UV spectrum (250–500 nm) of the donor and the acceptor were read. The permeability coefficient was calculated using PAMPA Evolution 96 Command software (pION Inc.) based on the AUC of the reference plate, the donor plate, and the acceptor plate. All compounds were tested in triplicate.

P. falciparum strain 3D7 = test: Proliferation of intraerythrocytic P. falciparum 3D7 (SYBR Green, 72 h); assay type: cell-based, Plasmodium falciparum; settings: Plasmodium falciparum, 3D7, 72 h, read-out: Pf 3D7 EC50
Procedure: (§2) Two P. falciparum strains were used in this study and were provided by the MR4 Unit of the American Type Culture Collection (ATCC, Manassas, VA). Those two strains were the chloroquine sensitive strain 3D7 and the K1 strain that is resistant to chloroquine, pyrimethamine, and sulfadoxine.
(§3) Asynchronous parasites were maintained in culture based on the method of Trager. Parasites were grown in presence of fresh group O-positive erythrocytes (Key Biologics, LLC) in Petri dishes at a hematocrit of 4–6% in RPMI based media (RPMI 1640 supplemented with 0.5% AlbuMAX II, 25 mM HEPES, 25 mM NaHCO3 (pH 7.3), 100 μg/mL hypoxanthine, and 5 μg/mL gentamycin). Cultures were incubated at 37°C in a gas mixture of 90% N2, 5% O2, 5% CO2. For EC50 determinations, 20 μL of RPMI 1640 with 5 μg/mL gentamycin were dispensed per well in an assay plate (Corning 384-well microtiter plate, clear bottom, tissue culture treated, catalog no. 8807BC). 40 nL of compound, previously serially diluted in a separate 384-well white polypropylene plate (Corning, catalog no. 8748BC), was dispensed to the assay plate by hydrodynamic pin transfer (FP1S50H, V&P Scientific Pin Head) and then 20 μL of a synchronized culture suspension (1% rings, 4% hematocrit) was added to each well, thus making a final hematocrit and parasitemia of 2% and 1%, respectively. Assay plates were incubated for 72 h, and the parasitemia was determined by a method previously described: Briefly, 10 μL of the assay solution in PBS (10X SYBR Green I, 0.5% v/v triton X-100, 0.5 mg/mL saponin) was added to each well. Assay plates were shaken for 1 min, incubated in the dark for 90 min, and read with an Envision (Perkin Elmer) spectrophotometer at Ex/Em of 485 nm/535 nm. EC50s were calculated with a custom program (RISE, Robust Investigation of Screening Experiments) using a four-parameter logistic equation.

P. falciparum strain K1 = test: Proliferation of intraerythrocytic P. falciparum K1 (SYBR Green, 72 h); assay type: cell-based, Plasmodium falciparum; settings: Plasmodium falciparum, K1, 72 h, read-out: Pf K1 EC50
Procedure: as §2, §3

[2] = tested on: P. falciparum strain 3D7 intraerythrocytic forms; parameters: method as in PubChem web site, http://pubchem.ncbi.nlm.nih.gov/; settings: reported values; ref PubChem web site, http://pubchem.ncbi.nlm.nih.gov/; read-out: EC50 3D7 In vitro; cited from earlier work
[3] = read-out: IC50 PfHT, inhibition of uptake of 100 μM [3H] D-glucose, 1 min uptake assay

Structure (SMILES)	IC50 (human GLUT1)	IC50 (PfHT)	SIglucose GLUT1/PfHT (Specificity Index, IC50 for GLUT1/IC50 for PfHT) (PfHT)	EC50 [2]	other results
Cc1cccc(C(=O)Nc2cccc(-c3nc4ccccc4[nH]3)c2)c1 [Compound 17]	12 µM	13 µM	0.92	–	–
NC(=O)N1c2ccccc2C=Cc2ccccc21 [Carbamazepine, carbamazepine, reference compound]	–	–	–	–	solubility at 18 h (Solubility assay; PBS buffer): 87 ± 1.2 µM (≈ 20.6 µg/mL); Permeation [1]: 85 ± 21 10^-6 cm/s; Retention [1]: 43 ± 3.0%
CCN(CC)CCCC(C)Nc1ccnc2cc(Cl)ccc12 (centres unmarked) [Chloroquine, chloroquine, reference compound]	–	–	–	–	EC50 (P. falciparum strain 3D7): 0.08 µM; EC50 (P. falciparum strain K1): 0.81 µM
CC(C)(C)C(=O)Nc1ccc(C(=O)Nc2cccc(-c3nc4ccccc4[nH]3)c2)cc1 [Compound 8]	0.37 µM	2.7 µM	0.14	0.28 µM	–
COc1ccc(Nc2cc(C)nc(Nc3ccc(NC(C)=O)cc3)n2)cc1 [Compound 5]	0.25 µM	3.4 µM	0.073	0.86 µM	–
Cc1cc(C)cc(C(=O)Nc2cccc(-c3nc4ccccc4[nH]3)c2)c1 [Compound 18]	12 µM	16 µM	0.75	–	–
COc1ccccc1Nc1ccc2cc(S(=O)(=O)N3CCCC3)ccc2n1 [Compound 14]	6.3 µM	–	–	–	IC50 (PfHT; [3]): > 10 µM
COc1ccc(Nc2ccc3cc(S(=O)(=O)N4CCCCC4C)ccc3n2)cc1Cl (centres unmarked) [Compound 11]	61 µM	0.94 µM	65	–	selective inhibition of PfHT versus GLUT1 (PfHT): 65 fold
CCN1CCN(Cc2ccc(NC(=O)c3cc4ccc5cccnc5c4[nH]3)cc2)CC1 [Compound 9]	9.5 µM	3.5 µM	2.7	0.38 µM	–
Cc1cc(=O)[nH]c(-n2nc(C)cc2NC(=O)C(c2ccccc2)c2ccccc2)n1 [Compound 6]	0.66 µM	12 µM	0.055	0.84 µM	–
CC(C)(C)C(=O)Nc1ccc(C(=O)Nc2ccc(-c3nc4ccccc4[nH]3)cc2)cc1 [Compound 21]	11 µM	91 µM	0.12	–	–
Cc1ccc(C(=O)Nc2cccc(-c3nc4ccccc4[nH]3)c2)cc1 [Compound 16]	72 µM	23 µM	2–3 and 3.1	–	–
CNC(=C[N+](=O)[O-])NCCSCc1ccc(CN(C)C)o1 [Ranitidine HCl, ranitidine, reference compound]	–	–	–	–	solubility at 18 h (Solubility assay; PBS buffer): 84 ± 1.2 µM; Permeation [1]: 0 ± 0 10^-6 cm/s; Retention [1]: 1.7 ± 1.3%
O=C(Nc1cccc(-c2nc3ccccc3[nH]2)c1)c1ccccc1 [Compound 19]	11 µM	5.3 µM	2–3 and 2.1	–	–
CCC(C)(CC)C(=O)n1ncc2c3c(N)nc(N)nc3ccc21 [Compound 2]	44 µM	3 µM	15	0.01 µM	–
CC(C)(C)c1ccc(C(=O)Nc2cccc(-c3nc4ccccc4[nH]3)c2)cc1 [Compound 20]	31 µM	–	–	–	IC50 (PfHT; [3]): > 10 µM
CCC(C)(C)C1CCc2[nH]c3ccccc3c(=O)c2C1 (centres unmarked) [Compound 4]	5.7 µM	27 µM	0.21	0.38 µM	–
CC(C)C(C(=O)n1ncc2c3c(N)nc(N)nc3ccc21)C(C)C [Compound 3]	8.1 µM	1.1 µM	7.4	0.65 µM	–
COc1ccc(Nc2ccc3cc(S(=O)(=O)N4CCOCC4)ccc3n2)cc1OC [Compound 15]	0.84 µM	3.1 µM	0.27	–	–
CCCSc1ccc2nc(NC(=O)OC)[nH]c2c1 [Albendazole, albendazole, reference compound]	–	–	–	–	solubility at 18 h (Solubility assay): 5.9 ± 2.3 µM (≈ 1.57 µg/mL); Permeation [1]: 286 ND 10^-6 cm/s; Retention [1]: 59 ± 27%
OC(c1cc(C(F)(F)F)nc2c(C(F)(F)F)cccc12)C1CCCCN1 (centres unmarked) [Mefloquine, mefloquine, reference compound]	–	–	–	–	EC50 (P. falciparum strain 3D7; chloroquine sensitive strain 3D7, 72 h): 0.12 µM; EC50 (P. falciparum strain K1; multi-drug resistant strain K1, 72 h): 0.02 µM
O=C1c2ccc3c4c(ccc(c24)C(=O)N1CCCCO)C(=O)N(CCCCO)C3=O [Compound 7]	3.6 µM and > 3 µM	0.051 µM	71	0.79 µM	selective inhibition of PfHT versus GLUT1 (PfHT): 71 fold; Ki (PfHT; Kic (Ki for binding of inhibitor to free transporter), from plot of Km/Vmax versus [I]): 0.093 µM; Ki (PfHT; Kiu (Ki for binding of inhibitor to substrate-bound transporter), from plot of 1/Vmax versus [I]): 0.091 µM; Vmax (PfHT; [I] 100 nM): 274 ± 71 pmol per 10^7 cells per min; Vmax (PfHT; [I] 300 nM): 128 ± 42 pmol per 10^7 cells per min; mode of inhibition of glucose uptake through PfHT (PfHT; substrate saturation curves, one-way ANOVA of Vmax and Km): non-competitive inhibitors
